≈ marks a conversion by molar mass, not a printed value. Calls of active or inactive are those of the source. The calls are words filed in the database; no cut-off is given here.
Key:
Cell membrane [1] = experiment: Induction of cell membrane damage in Staphylococcus aureus assessed as corrugation with leakage of cellular contents at 2XMIC by SEM analysis; format: cell membranes
HEK293 [2] = experiment: Cytotoxicity against human HEK293 cells at 0.1 uM by MTT assay; format: toxicity, cell-based; settings: hek293, 0.1 µM
Cell membrane [3] = experiment: Induction of Outer membrane disruption in Staphylococcus aureus assessed as […] in fluorescence intensity at MIC to 4X MIC measured for 5 to 30 mins by NPN dye based fluorescence analysis; settings: time 5-30 min, TDE = time-dependent effect
[4] = test system: Acinetobacter calcoaceticus; experiment: Antibacterial activity against Acinetobacter calcoaceticus assessed as inhibition of bacterial growth by two-fold serial broth dilution method; format: functional
Serratia marcescens = experiment: Antibacterial activity against Serratia marcescens assessed as inhibition of bacterial growth by two-fold serial broth dilution method; format: functional
Calf thymus DNA [5] = experiment: Binding affinity to calf thymus DNA assessed as quenching constant by fluorescence based analysis; format: nucleic-acid assay; settings: Bos taurus
Cell membrane [6] = experiment: Induction of cell membrane damage in Staphylococcus aureus assessed as broken cell membrane at 2XMIC by SEM analysis; format: cell membranes
Cell membrane [7] = experiment: Induction of Inner membrane disruption in Staphylococcus aureus assessed as increase in fluorescence intensity at MIC to 4XMIC by EtBr dye based fluorescence analysis; format: cell membranes
Bacillus subtilis = experiment: Antibacterial activity against Bacillus subtilis assessed as inhibition of bacterial growth by two-fold serial broth dilution method; format: functional
Albumin [8] = target: T1, Albumin (Homo sapiens, UniProt P02768); experiment: Binding affinity to human serum albumin assessed as binding constant by Benesi-Hildebrand equation based analysis; format: ADME; settings: isolated protein
T1 sequence (P02768 whole entry): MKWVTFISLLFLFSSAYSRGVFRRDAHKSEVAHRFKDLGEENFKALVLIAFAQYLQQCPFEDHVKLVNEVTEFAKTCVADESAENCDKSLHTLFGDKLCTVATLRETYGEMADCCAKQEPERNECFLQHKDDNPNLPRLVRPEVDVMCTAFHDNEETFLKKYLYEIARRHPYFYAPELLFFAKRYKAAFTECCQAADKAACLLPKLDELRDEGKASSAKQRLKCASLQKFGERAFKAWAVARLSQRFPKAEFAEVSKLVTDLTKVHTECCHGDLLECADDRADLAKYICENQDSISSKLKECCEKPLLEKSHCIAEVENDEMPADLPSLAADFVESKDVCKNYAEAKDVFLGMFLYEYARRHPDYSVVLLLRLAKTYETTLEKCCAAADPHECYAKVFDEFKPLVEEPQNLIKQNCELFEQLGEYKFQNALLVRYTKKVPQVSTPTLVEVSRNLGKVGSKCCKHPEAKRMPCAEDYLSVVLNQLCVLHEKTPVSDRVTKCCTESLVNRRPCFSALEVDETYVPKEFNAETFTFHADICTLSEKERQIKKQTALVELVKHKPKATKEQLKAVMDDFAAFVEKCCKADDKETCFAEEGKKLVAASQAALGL

Staphylococcus aureus [9] = experiment: Antibacterial activity against Staphylococcus aureus assessed as inhibition of bacterial growth by two-fold serial broth dilution method; format: functional
Calf thymus DNA [10] = experiment: Binding affinity to calf thymus DNA assessed as DNA intercalation by measuring quenching in emission band at 601 nm at 0 to 90 uM by ethidium bromide competitive displacement assay; format: nucleic-acid assay; settings: Bos taurus; dose 0-90 µM
Staphylococcus aureus [11] = experiment: Anti-biofilm activity against Staphylococcus aureus assessed as inhibition of biofilm formation at 1/8XMIC by crystal violet assay; format: functional
Staphylococcus aureus [12] = experiment: Bactericidal activity against Staphylococcus aureus assessed as decrease in bacterial absorbance at MIC measured after 1 hr by time-kill analysis; format: functional, organism-based
Albumin [13] = target: T1, Albumin; experiment: Binding affinity to human serum albumin assessed as quenching in emission band at 350 nm at 0 to 35 uM at 298 to 318K by fluorescence based analysis; format: ADME; settings: isolated protein, dose 0-35 µM
Albumin [14] = target: T1, Albumin; experiment: Binding affinity to human serum albumin assessed as Stem-Volmer quenching constant at 318K by fluorescence based analysis; format: ADME; settings: isolated protein
Salmonella enterica = experiment: Antibacterial activity against Salmonella enterica assessed as inhibition of bacterial growth by two-fold serial broth dilution method; format: functional
Cell membrane [15] = experiment: Induction of cell membrane damage in Staphylococcus aureus assessed as increase in leaked protein content at MIC to 8XMIC; format: cell membranes
Staphylococcus aureus [16] = experiment: Ratio of MBC to MIC for Staphylococcus aureus; format: functional
Albumin [17] = target: T1, Albumin; experiment: Binding affinity to human serum albumin assessed as binding constant at 318K by fluorescence based analysis; format: ADME; settings: isolated protein
Staphylococcus aureus [18] = experiment: Antibacterial activity against Staphylococcus aureus assessed as inhibition of bacterial growth measured after 11 passages; format: functional, organism-based
Albumin [19] = target: T1, Albumin; experiment: Binding affinity to human serum albumin assessed as binding constant at 308K by fluorescence based analysis; format: ADME; settings: isolated protein
Albumin [20] = target: T1, Albumin; experiment: Binding affinity to human serum albumin assessed as change in free energy at 308K by Van't Hoff plot analysis; format: ADME; settings: isolated protein
Calf thymus DNA [21] = experiment: Binding affinity to calf thymus DNA assessed as Stern-Volmer quenching constant by fluorescence based analysis; format: nucleic-acid assay; settings: Bos taurus
Staphylococcus aureus [22] = experiment: Bactericidal activity against Staphylococcus aureus assessed as inhibition of bacterial growth at 1/4XMIC measured for 3 hrs by time-kill analysis; format: functional, organism-based
Enterococcus faecalis [23] = experiment: Bacteriostatic activity against Enterococcus faecalis assessed as inhibition of bacterial growth; format: functional
Escherichia coli = experiment: Antibacterial activity against Escherichia coli assessed as inhibition of bacterial growth by two-fold serial broth dilution method; format: functional
Calf thymus DNA [24] = experiment: Binding affinity to calf thymus DNA assessed as binding constant by fluorescence based analysis; format: nucleic-acid assay; settings: Bos taurus
Calf thymus DNA [25] = experiment: Binding affinity to calf thymus DNA by Benesi-Hildebrand equation based analysis; format: nucleic-acid assay; settings: Bos taurus
Enterococcus faecalis [26] = experiment: Ratio of MBC to MIC for Enterococcus faecalis; format: functional
Albumin [27] = target: T1, Albumin; experiment: Binding affinity to human serum albumin assessed as change in entropy by Van't Hoff plot analysis; format: ADME; settings: isolated protein
Staphylococcus aureus [28] = experiment: Anti-biofilm activity against Staphylococcus aureus assessed as inhibition of biofilm formation at MIC by crystal violet assay; format: functional
Albumin [29] = target: T1, Albumin; experiment: Binding affinity to human serum albumin assessed as binding constant at 298K by fluorescence based analysis; format: ADME; settings: isolated protein
Calf thymus DNA [30] = experiment: Binding affinity to calf thymus DNA assessed as hypochromic shift in absorption band at 344 nm at 5 uM by UV-Vis absorption spectroscopy; format: nucleic-acid assay; settings: Bos taurus
HEK293 [31] = experiment: Cytotoxicity against human HEK293 cells at 100 uM by MTT assay; format: toxicity, cell-based; settings: hek293, 100 µM
HEK293 [32] = experiment: Cytotoxicity against human HEK293 cells at 1 uM by MTT assay; format: toxicity, cell-based; settings: hek293, 1 µM
Cell membrane [33] = experiment: Induction of cell membrane damage in Staphylococcus aureus assessed as loss of bacterial metabolic activity at MIC to 8XMIC by Alamar blue dye based fluorescence analysis; format: cell membranes
Albumin [34] = target: T1, Albumin; experiment: Binding affinity to human serum albumin assessed as change in free energy at 298K by Van't Hoff plot analysis; format: ADME; settings: isolated protein
Albumin [35] = target: T1, Albumin; experiment: Binding affinity to human serum albumin assessed as change in enthalpy by Van't Hoff plot analysis; format: ADME; settings: isolated protein
Listeria = experiment: Antibacterial activity against Listeria sps. assessed as inhibition of bacterial growth by two-fold serial broth dilution method; format: functional
Albumin [36] = target: T1, Albumin; experiment: Binding affinity to human serum albumin assessed as quenching constant at 298K by fluorescence based analysis; format: ADME; settings: isolated protein
Albumin [37] = target: T1, Albumin; experiment: Binding affinity to human serum albumin assessed as hyperchromic shift at 280 nm at 0 to 18 uM by UV-Vis absorption spectroscopic analysis; format: ADME; settings: isolated protein, dose 0-18 µM
HEK293 [38] = experiment: Cytotoxicity against human HEK293 cells at 10 uM by MTT assay; format: toxicity, cell-based; settings: hek293, 10 µM
Staphylococcus aureus [39] = experiment: Bactericidal activity against Staphylococcus aureus assessed as bacterial killing; format: functional
Staphylococcus aureus [40] = experiment: Anti-biofilm activity against Staphylococcus aureus assessed as inhibition of biofilm formation at 1/2XMIC by crystal violet assay; format: functional
Albumin [41] = target: T1, Albumin; experiment: Binding affinity to human serum albumin assessed as dynamic quenching by measuring decrease in decay time of HSA at 0 to 21 uM by time-resolved fluorescence analysis; format: ADME; settings: isolated protein, dose 0-21 µM
Cell membrane [42] = experiment: Induction of Outer membrane disruption in Staphylococcus aureus assessed as […] in fluorescence intensity at MIC to 4X MIC by NPN dye based fluorescence analysis
Albumin [43] = target: T1, Albumin; experiment: Binding affinity to human serum albumin assessed as increase in compound corresponding new band formation at 344 nm at 0 to 18 uM by UV-Vis absorption spectroscopic analysis; format: ADME; settings: isolated protein, dose 0-18 µM
Albumin [44] = target: T1, Albumin; experiment: Binding affinity to human serum albumin assessed as change in free energy at 318K by Van't Hoff plot analysis; format: ADME; settings: isolated protein
Staphylococcus aureus [45] = experiment: Anti-biofilm activity against Staphylococcus aureus assessed as inhibition of biofilm formation at 1/16XMIC by crystal violet assay; format: functional
Staphylococcus aureus [46] = experiment: Bactericidal activity against Staphylococcus aureus assessed as decrease in bacterial absorbance at 1/2XMIC measured after 2 hrs by time-kill analysis; format: functional, organism-based
Enterococcus faecalis [47] = experiment: Antibacterial activity against Enterococcus faecalis assessed as inhibition of bacterial growth by two-fold serial broth dilution method; format: functional
Albumin [48] = target: T1, Albumin; experiment: Binding affinity to human serum albumin assessed as Stem-Volmer quenching constant at 298K by fluorescence based analysis; format: ADME; settings: isolated protein
HEK293 [49] = experiment: Cytotoxicity against human HEK293 cells at 0.01 uM by MTT assay; format: toxicity, cell-based; settings: hek293, 0.01 µM
Calf thymus DNA [50] = experiment: Binding affinity to calf thymus DNA assessed as DNA intercalation by measuring increase in DNA melting temperature by thermal denaturation based analysis; format: nucleic-acid assay; settings: Bos taurus
Cell membrane [51] = experiment: Induction of Inner membrane disruption in Staphylococcus aureus assessed as increase in fluorescence intensity at MIC to 4XMIC measured for 5 to 30 mins by EtBr dye based fluorescence analysis; format: cell membranes; settings: time 5-30 min, TDE = time-dependent effect
Albumin [52] = target: T1, Albumin; experiment: Binding affinity to human serum albumin assessed as Stem-Volmer quenching constant at 308K by fluorescence based analysis; format: ADME; settings: isolated protein

Structure (SMILES): O=C1c2cccc3cccc(c23)C(=O)N1Nc1nc(NCc2ccccc2)nc(N2CCOCC2)n1
- Activity (Cell membrane [1]): Active
- Activity (HEK293 [2]): 12.2%
- Activity (Cell membrane [3]): Tde
- MIC [4]: 200 µg/mL (≈ 415 µM)
- MIC (Serratia marcescens): 100 µg/mL (≈ 208 µM)
- Kq (Calf thymus DNA [5]): 1.22 10^12/M/s
- Activity (Cell membrane [6]): Active
- Activity (Cell membrane [7]): Dose-Dependent Effect
- MIC (Bacillus subtilis): 3.12 µg/mL (≈ 6.49 µM)
- Kb (Albumin [8]): 1.32 10^5/M
- MIC (Staphylococcus aureus [9]): 1.56 µg/mL (≈ 3.24 µM)
- Activity (Calf thymus DNA [10]): Active
- inhibition (INH) (Staphylococcus aureus [11]): 10%
- Activity (Staphylococcus aureus [12]): Active
- Activity (Albumin [13]): Active
- KSV (Albumin [14]): 1.13 10^5/M
- MIC (Salmonella enterica): 200 µg/mL (≈ 415 µM)
- Activity (Cell membrane [15]): Active
- Ratio (Staphylococcus aureus [16]): 2
- Kb (Albumin [17]): 4.41 10^4/M
- Activity (Staphylococcus aureus [18]): Active
- Kb (Albumin [19]): 6.61 10^4/M
- deltaG (Albumin [20]): -1.62 kcal/mol
- KSV (Calf thymus DNA [21]): 1.22 10^4/M
- Activity (Staphylococcus aureus [22]): Active
- MBC (Enterococcus faecalis [23]): 0.19 µg/mL (≈ 0.395 µM)
- MIC (Escherichia coli): 100 µg/mL (≈ 208 µM)
- Kb (Calf thymus DNA [24]): 8.26 10^4/M
- Kb (Calf thymus DNA [25]): 5.99 10^4/M
- Ratio (Enterococcus faecalis [26]): >=32
- deltaS (Albumin [27]): -5.88 J/mol.K
- inhibition (INH) (Staphylococcus aureus [28]): 60%
- Kb (Albumin [29]): 11.01 10^4/M
- Activity (Calf thymus DNA [30]): Active
- Activity (HEK293 [31]): 9.01%
- Activity (HEK293 [32]): 11.8%
- Activity (Cell membrane [33]): Active
- deltaG (Albumin [34]): -1.64 kcal/mol
- deltaH (Albumin [35]): -2.06 kcal/mol
- MIC (Listeria): 6.25 µg/mL (≈ 13 µM)
- Kq (Albumin [36]): 1.63 10^13/M
- Activity (Albumin [37]): Active
- Activity (HEK293 [38]): 10.5%
- MBC (Staphylococcus aureus [39]): 3.25 µg/mL (≈ 6.75 µM)
- inhibition (INH) (Staphylococcus aureus [40]): 30%
- Activity (Albumin [41]): Active
- Activity (Cell membrane [42]): Dose-Dependent Effect
- Activity (Albumin [43]): Active
- deltaG (Albumin [44]): -1.61 kcal/mol
- inhibition (INH) (Staphylococcus aureus [45]): 5%
- Activity (Staphylococcus aureus [46]): Active
- MIC (Enterococcus faecalis [47]): 0.003 µg/mL (≈ 0.00623 µM)
- KSV (Albumin [48]): 1.63 10^5/M
- Activity (HEK293 [49]): 13.4%
- ΔTm (Calf thymus DNA [50]): 12.8 °C
- Activity (Cell membrane [51]): Tde
- KSV (Albumin [52]): 1.18 10^5/M

— ChEMBL document CHEMBL5620398, “Membrane-active substituted triazines as antibacterial agents against Staphylococcus aureus with potential for low drug resistance and broad activity” (Eur J Med Chem, 2023)
